Assay [1] concerns the target Vasopressin V2 receptor (Sus scrofa) (UniProt P32307). Briefly: Compound was tested for binding affinity against V2 vasopressin receptor in pig renal medullary membrane preparations using tritiated LVP. In kind it is cell membranes. To be noted: Renal medulla.
For assay [2], the system named is Rattus norvegicus. Briefly: Compound was tested in vivo to lower urine osmolality to 300 mOsm/kg in hydropenic rat preparation. In kind it is functional.
Assay [3] has as its system Rattus norvegicus. Briefly: Compound was tested in vivo to lower urine osmolality to 300 mOsm/kg in hydropenic rat preparation; na=No activity. In kind it is functional, organism-based.
In assay [4] the target is T1, Vasopressin V2 receptor (Sus scrofa, UniProt P32307). Nature of the assay: Compound was tested for inhibition against V2 vasopressin receptor in pig renal medullary membrane preparations; e=Partial agonist with a relative Vmax of 14%. In kind it is functional, cell membranes, Renal medulla.
The next assay is filed under the species Sus scrofa. Briefly: Compound was tested for adenylate cyclase activation in pig renal medullary membrane preparations. In kind it is functional. To be noted: Renal medulla.
Assay [5] concerns the target T1, Vasopressin V2 receptor. Nature of the assay: Compound was tested for inhibition against V2 vasopressin receptor in pig renal medullary membrane preparations. In kind it is cell membranes, Renal medulla.

Activity calls are given as the source filed them. The rule behind the calls is not given here.

Vasopressin V2 receptor (Sus scrofa), sequence (P32307 whole entry): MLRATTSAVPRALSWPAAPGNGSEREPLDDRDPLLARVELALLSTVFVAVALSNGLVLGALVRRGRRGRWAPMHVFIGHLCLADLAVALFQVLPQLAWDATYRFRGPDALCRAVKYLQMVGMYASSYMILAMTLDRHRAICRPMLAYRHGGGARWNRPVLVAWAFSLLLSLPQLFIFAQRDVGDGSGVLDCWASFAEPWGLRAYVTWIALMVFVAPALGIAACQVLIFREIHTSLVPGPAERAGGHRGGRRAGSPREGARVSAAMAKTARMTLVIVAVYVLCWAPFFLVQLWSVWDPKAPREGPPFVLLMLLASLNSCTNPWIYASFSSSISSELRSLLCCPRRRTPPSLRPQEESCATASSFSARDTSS
T1 sequence (P32307 whole entry): as above

In assay [1], `CCOc1ccc(C[C@@H]2NC(=O)CC(CC)(CC)SSC[C@H](C(=O)N3CCC[C@H]3C(=O)N[C@H](CCCN=C(N)N)C(N)=O)NC(=O)[C@@H](CC(N)=O)NC(=O)[C@H](C(C)C)NC(=O)[C@@H](Cc3ccccc3)NC2=O)cc1` registered a K bind of 450 nM. The molecule further returned an ED300 in the assay with Rattus norvegicus [2] of 0.12 mg/kg. Consider `CCOc1ccc(C[C@H]2NC(=O)CC(C)(C)SSC[C@H](C(=O)N3CCC[C@H]3C(=O)N[C@H](CCCN=C(N)N)C(=O)NCC(N)=O)NC(=O)[C@@H](CC(N)=O)NC(=O)[C@H](C(C)C)NC(=O)[C@@H](Cc3ccccc3)NC2=O)cc1`, for which, in assay [1], the K bind was 39 nM. Besides, in the assay on Rattus norvegicus [3], the ED300 result was “inactive”. Also, the Ki result on Vasopressin V2 receptor [4] is recorded as “Partial agonist”. In addition, in the assay listed under Sus scrofa, the K act worked out at 79 nM. In the case of `CCOc1ccc(C[C@H]2NC(=O)CC3(CCCCC3)SSC[C@H](C(=O)N3CCC[C@H]3C(=O)N[C@H](CCCN=C(N)N)C(N)=O)NC(=O)[C@@H](CC(N)=O)NC(=O)[C@H](C(C)C)NC(=O)[C@@H](Cc3ccccc3)NC2=O)cc1`, the K bind in assay [1] came to 12 nM. Further, in the assay on Rattus norvegicus [2], the ED300 amounted to 0.01 mg/kg. Take `CCOc1ccc(C[C@H]2NC(=O)CC3(CCCCC3)SSC[C@H](C(=O)N3CCC[C@H]3C(=O)N[C@H](CCCN=C(N)N)C(=O)NCC(N)=O)NC(=O)[C@@H](CC(N)=O)NC(=O)[C@H](C(C)C)NC(=O)[C@@H](Cc3ccccc3)NC2=O)cc1`: the K bind in assay [1] stood at 12 nM.

In assay [1], `CCOc1ccc(C[C@H]2NC(=O)CC(CC)(CC)SSC[C@H](C(=O)N3CCC[C@H]3C(=O)N[C@H](CCCN=C(N)N)C(=O)NCC(N)=O)NC(=O)[C@@H](CC(N)=O)NC(=O)[C@H](C(C)C)NC(=O)[C@@H](Cc3ccccc3)NC2=O)cc1` came in with a K bind of 35 nM. For `CCOc1ccc(C[C@H]2NC(=O)CC(CC)(CC)SSC[C@@H](C(=O)N3CCC[C@H]3C(=O)N[C@@H](CCCN=C(N)N)C(N)=O)NC(=O)[C@H](CC(N)=O)NC(=O)[C@H](C(C)C)NC(=O)[C@H](Cc3ccccc3)NC2=O)cc1`, the ED300 with Rattus norvegicus [2] is 0.012 mg/kg. In assay [1], `CCOc1ccc(C[C@@H]2NC(=O)CC3(CCCCC3)SSC[C@H](C(=O)N3CCC[C@H]3C(=O)N[C@H](CCCN=C(N)N)C(N)=O)NC(=O)[C@@H](CC(N)=O)NC(=O)[C@H](C(C)C)NC(=O)[C@@H](Cc3ccccc3)NC2=O)cc1` showed a K bind of 280 nM. Moreover, the ED300 in the assay on Rattus norvegicus [2] worked out at 0.3 mg/kg. With `CCOc1ccc(C[C@H]2NC(=O)CC(CC)(CC)SSC[C@@H](C(=O)N3CCC[C@H]3C(=O)N[C@@H](CCCN=C(N)N)C(=O)NCC(N)=O)NC(=O)[C@H](CC(N)=O)NC(=O)[C@H](C(C)C)NC(=O)[C@H](Cc3ccccc3)NC2=O)cc1` [listing 1 of 2 here], the ED300 in the assay on Rattus norvegicus [2] came to 0.023 mg/kg. As for `CCOc1ccc(C[C@H]2NC(=O)CC(CC)(CC)SSC[C@@H](C(=O)N3CCC[C@H]3C(=O)N[C@@H](CCCN=C(N)N)C(=O)NCC(N)=O)NC(=O)[C@H](CC(N)=O)NC(=O)[C@H](C(C)C)NC(=O)[C@H](Cc3ccccc3)NC2=O)cc1` [listing 2 of 2 here], the inhibitory constant (Ki) on Vasopressin V2 receptor [5] was determined as 5.3 nM. `CCOc1ccc(C[C@H]2NC(=O)CC3(CCCCC3)SSC[C@@H](C(=O)N3CCC[C@H]3C(=O)N[C@@H](CCCN=C(N)N)C(=O)NCC(N)=O)NC(=O)[C@H](CC(N)=O)NC(=O)[C@H](C(C)C)NC(=O)[C@H](Cc3ccccc3)NC2=O)cc1` registered an ED300 with Rattus norvegicus [2] of 0.011 mg/kg. `CCOc1ccc(C[C@H]2NC(=O)CC(CC)(CC)SSC[C@H](C(=O)N3CCC[C@H]3C(=O)N[C@H](CCCN=C(N)N)C(N)=O)NC(=O)[C@@H](CC(N)=O)NC(=O)[C@H](C(C)C)NC(=O)[C@@H](Cc3ccccc3)NC2=O)cc1`: in assay [1], the K bind amounted to 30 nM. Turning to `CCOc1ccc(C[C@H]2NC(=O)CC(CC)(CC)SSC[C@@H](C(=O)N3CCC[C@H]3C(=O)N[C@@H](CCCNC(=N)N)C(N)=O)NC(=O)[C@H](CC(N)=O)NC(=O)[C@H](C(C)C)NC(=O)[C@H](Cc3ccccc3)NC2=O)cc1`, at Vasopressin V2 receptor [5], the affinity corresponds to a Ki of 8.9 nM.

For the origin of these results see ChEMBL document CHEMBL1123377, “Potent antagonists of vasopressin antidiuretic activity that lack the beta,beta-cyclopentamethylene-beta-mercaptopropionic acid substitution at position 1” (J Med Chem, 1986).
